The values that follow come from article PMC5218480 (PLoS ONE, 2017).

For the test, the system named is MV-4-11 cells. The experiment in a line: Gene expression microarray analysis (Affymetrix PrimeView) and GSEA. On the set-up: RFU PODN (11730768_x_at) / Fold change /veh PODN (11730768_x_at) / RFU LINC00158 (11744669_a_at) / Fold change /veh LINC00158 (11744669_a_at) / RFU DUSP10 (11751237_a_at) / Fold change /veh DUSP10 (11751237_a_at) / RFU ID3 (11757404_x_at) / Fold change /veh ID3 (11757404_x_at) / RFU PLEKHG5 (11737974_s_at) / Fold change /veh PLEKHG5 (11737974_s_at) / RFU LRRC4B (11730491_at) / Fold change /veh LRRC4B (11730491_at) / RFU GIMAP4 (11747438_a_at) / Fold change /veh GIMAP4 (11747438_a_at) / RFU KRT8 (11758183_x_at) / Fold change /veh KRT8 (11758183_x_at) / RFU CNN1 (11734310_a_at) / Fold change /veh CNN1 (11734310_a_at) / RFU VPS37D (11726825_at) / Fold change /veh VPS37D (11726825_at) / RFU C10orf10 (11716522_x_at) / Fold change /veh C10orf10 (11716522_x_at) / RFU KIR2DL2 /// KIR2DL4 /// KIR2DL5A /// KIR2DL5B /// KIR2DS1 /// KIR2DS2 /// KIR2DS3 /// KIR2DS4 /// KIR3DL3 /// KIR3DL3 /// KIR3DS1 (11738374_at) / Fold change /veh KIR2DL2 /// KIR2DL4 /// KIR2DL5A /// KIR2DL5B /// KIR2DS1 /// KIR2DS2 /// KIR2DS3 /// KIR2DS4 /// KIR3DL3 /// KIR3DL3 /// KIR3DS1 (11738374_at) / RFU C1QL1 (11718748_at) / Fold change /veh C1QL1 (11718748_at) / RFU TMPRSS4 (11747572_a_at) / Fold change /veh TMPRSS4 (11747572_a_at) / RFU HAMP (11756126_x_at) / Fold change /veh HAMP (11756126_x_at) / RFU RNFT2 (11725882_a_at) / Fold change /veh RNFT2 (11725882_a_at) / RFU NR4A2 (11747474_a_at) / Fold change /veh NR4A2 (11747474_a_at) / RFU ABCC12 (11746883_a_at) / Fold change /veh ABCC12 (11746883_a_at) / RFU TMEM136 (11760407_x_at) / Fold change /veh TMEM136 (11760407_x_at) / RFU CLDN22 /// WWC2 (11732394_at) / Fold change /veh CLDN22 /// WWC2 (11732394_at) / RFU HLA-DPB1 (11760878_x_at) / Fold change /veh HLA-DPB1 (11760878_x_at) / RFU SPINT1 (11716480_a_at) / Fold change /veh SPINT1 (11716480_a_at) / RFU GAP43 (11754022_s_at) / Fold change /veh GAP43 (11754022_s_at) / RFU A4GNT (11735810_at) / Fold change /veh A4GNT (11735810_at) / RFU PRB3 (11715151_x_at) / Fold change /veh PRB3 (11715151_x_at) / RFU TUBB4B (11761932_at) / Fold change /veh TUBB4B (11761932_at) / RFU CAPN14 (11732068_a_at) / Fold change /veh CAPN14 (11732068_a_at) / RFU TMCC2 (11721928_a_at) / Fold change /veh TMCC2 (11721928_a_at) / RFU IRGQ (11745062_a_at) / Fold change /veh IRGQ (11745062_a_at) / RFU FAM174B (11720279_a_at) / Fold change /veh FAM174B (11720279_a_at) / RFU TMPRSS4 (11748680_a_at) / Fold change /veh TMPRSS4 (11748680_a_at) / RFU FAM212B (11763350_a_at) / Fold change /veh FAM212B (11763350_a_at) / RFU PLEKHG5 (11743358_a_at) / Fold change /veh PLEKHG5 (11743358_a_at) / RFU ZSCAN30 (11745921_a_at) / Fold change /veh ZSCAN30 (11745921_a_at) / RFU CMKLR1 (11741424_a_at) / Fold change /veh CMKLR1 (11741424_a_at) / RFU LOC101060620 /// MAPK8IP1 (11723275_at) / Fold change /veh LOC101060620 /// MAPK8IP1 (11723275_at) / RFU SPTSSB (11747773_x_at) / Fold change /veh SPTSSB (11747773_x_at) / RFU PRSS12 (11739890_at) / Fold change /veh PRSS12 (11739890_at) / RFU BIN1 (11741810_x_at) / Fold change /veh BIN1 (11741810_x_at) / RFU WNT11 (11732464_a_at) / Fold change /veh WNT11 (11732464_a_at) / RFU C10orf10 (11716521_a_at) / Fold change /veh C10orf10 (11716521_a_at) / RFU C5orf56 (11738089_at) / Fold change /veh C5orf56 (11738089_at) / RFU CYB561 (11721691_x_at) / Fold change /veh CYB561 (11721691_x_at) / RFU ANKRD19P (11752326_a_at) / Fold change /veh ANKRD19P (11752326_a_at) / RFU OR2T12 /// OR2T33 /// OR2T8 (11738714_s_at) / Fold change /veh OR2T12 /// OR2T33 /// OR2T8 (11738714_s_at) / RFU VCAN (11748164_a_at) / Fold change /veh VCAN (11748164_a_at) / RFU JSRP1 (11732532_at) / Fold change /veh JSRP1 (11732532_at) / RFU KRTAP10-11 (11738290_x_at) / Fold change /veh KRTAP10-11 (11738290_x_at) / RFU MYO3A (11730013_a_at) / Fold change /veh MYO3A (11730013_a_at) / RFU EBF3 (11725865_a_at) / Fold change /veh EBF3 (11725865_a_at) / RFU CAMK2N1 (11719241_x_at) / Fold change /veh CAMK2N1 (11719241_x_at) / RFU C5orf56 (11738088_a_at) / Fold change /veh C5orf56 (11738088_a_at) / RFU OLFML3 (11715873_a_at) / Fold change /veh OLFML3 (11715873_a_at) / RFU LOC100653217 /// NTM (11731650_a_at) / Fold change /veh LOC100653217 /// NTM (11731650_a_at) / RFU MAPK11 (11762145_a_at) / Fold change /veh MAPK11 (11762145_a_at) / RFU FIZ1 (11724087_x_at) / Fold change /veh FIZ1 (11724087_x_at) / RFU OASL (11726364_x_at) / Fold change /veh OASL (11726364_x_at) / RFU SOX15 (11748057_x_at) / Fold change /veh SOX15 (11748057_x_at) / RFU CD79A (11719716_a_at) / Fold change /veh CD79A (11719716_a_at) / RFU HIST1H1D (11736915_at) / Fold change /veh HIST1H1D (11736915_at) / RFU CASKIN2 (11723855_a_at) / Fold change /veh CASKIN2 (11723855_a_at) / RFU LOC730098 (11760151_x_at) / Fold change /veh LOC730098 (11760151_x_at) / RFU OR4N2 (11742367_at) / Fold change /veh OR4N2 (11742367_at) / RFU PRRT2 (11749266_a_at) / Fold change /veh PRRT2 (11749266_a_at) / RFU SNX32 (11753110_a_at) / Fold change /veh SNX32 (11753110_a_at) / RFU CDHR5 (11726645_a_at) / Fold change /veh CDHR5 (11726645_a_at) / RFU RCAN1 (11760418_a_at) / Fold change /veh RCAN1 (11760418_a_at) / RFU FAM167A (11723789_a_at) / Fold change /veh FAM167A (11723789_a_at) / RFU FAM26E (11764081_at) / Fold change /veh FAM26E (11764081_at) / RFU ISYNA1 (11749810_s_at) / Fold change /veh ISYNA1 (11749810_s_at) / RFU ACY1 (11761880_at) / Fold change /veh ACY1 (11761880_at) / RFU 11764098_at / Fold change /veh 11764098_at / RFU SAMD14 (11745864_x_at) / Fold change /veh SAMD14 (11745864_x_at) / RFU NPB (11741838_a_at) / Fold change /veh NPB (11741838_a_at) / RFU TMPRSS6 (11731388_a_at) / Fold change /veh TMPRSS6 (11731388_a_at) / RFU KRTAP10-2 (11738614_at) / Fold change /veh KRTAP10-2 (11738614_at) / RFU ARHGAP8 /// PRR5-ARHGAP8 (11727945_x_at) / Fold change /veh ARHGAP8 /// PRR5-ARHGAP8 (11727945_x_at) / RFU KRTAP5-7 /// NADSYN1 (11734609_at) / Fold change /veh KRTAP5-7 /// NADSYN1 (11734609_at) / RFU RASL12 (11751679_a_at) / Fold change /veh RASL12 (11751679_a_at) / RFU CDKN2B (11736163_a_at) / Fold change /veh CDKN2B (11736163_a_at) / RFU PRF1 (11729649_at) / Fold change /veh PRF1 (11729649_at) / RFU, ZNF638 /// ZNF638-IT1 / Fold change vs veh, ZNF638 /// ZNF638-IT1 / RFU, PANK3 / Fold change vs veh, PANK3 / RFU, SH3YL1 / Fold change vs veh, SH3YL1 / RFU, ZEB2 / Fold change vs veh, ZEB2 / RFU, NRIP1 / Fold change vs veh, NRIP1 / RFU, PTTG1IP / Fold change vs veh, PTTG1IP / RFU, CAPN2 / Fold change vs veh, CAPN2 / RFU, MED14 / Fold change vs veh, MED14 / RFU, SNORA58 / Fold change vs veh, SNORA58 / RFU, C1orf63 / Fold change vs veh, C1orf63 / RFU, LRRFIP1 / Fold change vs veh, LRRFIP1 / RFU, NDUFAF7 / Fold change vs veh, NDUFAF7 / RFU, SLC12A2 / Fold change vs veh, SLC12A2 / RFU, IBTK / Fold change vs veh, IBTK / RFU, ESF1 / Fold change vs veh, ESF1 / Fold change vs veh, TMEM50B / RFU, TAOK1 / Fold change vs veh, TAOK1 / RFU, ACBD3 / Fold change vs veh, ACBD3 / RFU, TMA16 / Fold change vs veh, TMA16 / RFU, RWDD3 / Fold change vs veh, RWDD3 / RFU, BCAT1 / Fold change vs veh, BCAT1 / RFU, EDEM3 / Fold change vs veh, EDEM3 / RFU, TMEM33 / Fold change vs veh, TMEM33 / RFU, WDR75 / Fold change vs veh, WDR75 / RFU, AHCTF1 / Fold change vs veh, AHCTF1 / RFU, TFRC / Fold change vs veh, TFRC / RFU, ZDHHC17 / Fold change vs veh, ZDHHC17 / RFU, NOM1 / Fold change vs veh, NOM1 / RFU, ARL8B / Fold change vs veh, ARL8B / RFU, ZBTB11 / Fold change vs veh, ZBTB11 / RFU, TAMM41 / Fold change vs veh, TAMM41 / RFU, KIAA1704 /// LOC100996395 / Fold change vs veh, KIAA1704 /// LOC100996395 / RFU, ING1 / Fold change vs veh, ING1 / RFU, TRMT61B / Fold change vs veh, TRMT61B / RFU, FUBP3 / Fold change vs veh, FUBP3 / RFU, TP53 / Fold change vs veh, TP53 / RFU, TNKS2 / Fold change vs veh, TNKS2 / RFU, ZFP14 / Fold change vs veh, ZFP14 / RFU, ACTR2 / Fold change vs veh, ACTR2 / RFU, PPP3R1 / Fold change vs veh, PPP3R1 / RFU, PIK3R1 / Fold change vs veh, PIK3R1 / RFU, HNRNPA1 / Fold change vs veh, HNRNPA1 / RFU, RNF170 / Fold change vs veh, RNF170 / RFU, ZNF28 / Fold change vs veh, ZNF28 / RFU, RNGTT / Fold change vs veh, RNGTT / RFU, OGT / Fold change vs veh, OGT / RFU, BRD1 / Fold change vs veh, BRD1 / RFU, MARS / Fold change vs veh, MARS / RFU, ZNF655 / Fold change vs veh, ZNF655 / RFU, FAHD1 / Fold change vs veh, FAHD1 / RFU, BDP1 / Fold change vs veh, BDP1 / RFU, LRRCC1 / Fold change vs veh, LRRCC1 / RFU, ARID1A / Fold change vs veh, ARID1A / RFU, ZNF146 / Fold change vs veh, ZNF146 / RFU, ZNF330 / Fold change vs veh, ZNF330 / RFU, GPN3 / Fold change vs veh, GPN3 / RFU, C9orf123 / Fold change vs veh, C9orf123 / RFU, N4BP2L2 / Fold change vs veh, N4BP2L2 / RFU, ARFIP1 / Fold change vs veh, ARFIP1 / RFU, FAM179B / Fold change vs veh, FAM179B / RFU, BCL10 / Fold change vs veh, BCL10 / RFU, UHRF1BP1L / Fold change vs veh, UHRF1BP1L / RFU, BET1 / Fold change vs veh, BET1 / RFU, CNOT2 / Fold change vs veh, CNOT2 / RFU, ZNF268 / Fold change vs veh, ZNF268 / Fold change vs veh, ZNF507 / RFU, DGCR2 / Fold change vs veh, DGCR2 / RFU, WDSUB1 / Fold change vs veh, WDSUB1 / Fold change vs veh, HSP90B1 /// MIR3652 / RFU, ADSS / Fold change vs veh, ADSS / RFU, GK / Fold change vs veh, GK / RFU, ZNF148 / Fold change vs veh, ZNF148 / RFU, TAF9 / Fold change vs veh, TAF9 / RFU, SLC1A5 / Fold change vs veh, SLC1A5 / RFU, SLMO2 / Fold change vs veh, SLMO2 / RFU, ABCC4 / Fold change vs veh, ABCC4 / RFU, LOC101060439 /// RAP1B / Fold change vs veh, LOC101060439 /// RAP1B / RFU, RFX7 / Fold change vs veh, RFX7 / RFU, GTPBP10 / Fold change vs veh, GTPBP10 / RFU, CNEP1R1 / Fold change vs veh, CNEP1R1 / RFU, BIVM-ERCC5 /// ERCC5 / Fold change vs veh, BIVM-ERCC5 /// ERCC5 / RFU, ILF3 / Fold change vs veh, ILF3 / RFU 11762660_at / Fold change /veh 11762660_at / RFU VCAN (11757783_s_at) / Fold change /veh VCAN (11757783_s_at) / RFU DDX43 (11728927_at) / Fold change /veh DDX43 (11728927_at) / RFU KRT8 (11758188_x_at) / Fold change /veh KRT8 (11758188_x_at) / RFU NKD1 (11759106_at) / Fold change /veh NKD1 (11759106_at) / RFU SRD5A1 (11742802_a_at) / Fold change /veh SRD5A1 (11742802_a_at) / RFU TPSAB1 /// TPSB2 (11721975_s_at) / Fold change /veh TPSAB1 /// TPSB2 (11721975_s_at) / RFU GSTM3 (11746129_a_at) / Fold change /veh GSTM3 (11746129_a_at) / RFU IL23R (11737362_x_at) / Fold change /veh IL23R (11737362_x_at) / RFU TMEM51 (11727254_a_at) / Fold change /veh TMEM51 (11727254_a_at) / RFU PIWIL2 (11732686_x_at) / Fold change /veh PIWIL2 (11732686_x_at) / RFU ORM1 (11744905_x_at) / Fold change /veh ORM1 (11744905_x_at) / RFU CCDC152 (11743942_at) / Fold change /veh CCDC152 (11743942_at) / RFU ECM1 (11717891_a_at) / Fold change /veh ECM1 (11717891_a_at) / RFU IL23R (11748794_a_at) / Fold change /veh IL23R (11748794_a_at) / RFU TNFAIP8L3 (11732012_x_at) / Fold change /veh TNFAIP8L3 (11732012_x_at) / RFU MBOAT4 (11741988_at) / Fold change /veh MBOAT4 (11741988_at) / RFU 11764193_at / Fold change /veh 11764193_at / RFU TMEM53 (11763286_at) / Fold change /veh TMEM53 (11763286_at) / RFU MAGEB2 (11727129_at) / Fold change /veh MAGEB2 (11727129_at) / RFU TMEM200A (11744735_a_at) / Fold change /veh TMEM200A (11744735_a_at) / RFU CCDC152 (11751479_a_at) / Fold change /veh CCDC152 (11751479_a_at) / RFU FAM211A (11726209_a_at) / Fold change /veh FAM211A (11726209_a_at) / RFU RGS16 (11746705_a_at) / Fold change /veh RGS16 (11746705_a_at) / RFU VCAN (11755009_s_at) / Fold change /veh VCAN (11755009_s_at) / RFU RHOB (11743442_s_at) / Fold change /veh RHOB (11743442_s_at) / RFU RGS16 (11720943_a_at) / Fold change /veh RGS16 (11720943_a_at) / RFU RGS16 (11720944_at) / Fold change /veh RGS16 (11720944_at) / RFU, VPS4B / Fold change vs veh, VPS4B / RFU, CREB1 / Fold change vs veh, CREB1 / RFU, DNAJC13 / Fold change vs veh, DNAJC13 / RFU, GNAQ / Fold change vs veh, GNAQ / RFU, CDK5R1 / Fold change vs veh, CDK5R1 / RFU, ZRANB3 / Fold change vs veh, ZRANB3 / RFU, CUL4A / Fold change vs veh, CUL4A / RFU, CCNY / Fold change vs veh, CCNY / RFU, UFL1 / Fold change vs veh, UFL1 / RFU, COG3 / Fold change vs veh, COG3 / RFU, DIAPH2 / Fold change vs veh, DIAPH2 / RFU, SKA2 / Fold change vs veh, SKA2 / RFU, AFF3 / Fold change vs veh, AFF3 / RFU, LMF1 / Fold change vs veh, LMF1 / RFU, IPO11 / Fold change vs veh, IPO11 / RFU, DFFB / Fold change vs veh, DFFB / RFU, FOXP1 / Fold change vs veh, FOXP1 / RFU, CARD8 / Fold change vs veh, CARD8 / RFU, STRN3 / Fold change vs veh, STRN3 / RFU, ADK / Fold change vs veh, ADK / RFU, RASSF2 / Fold change vs veh, RASSF2 / RFU, WIPF1 / Fold change vs veh, WIPF1 / RFU, LARP1B / Fold change vs veh, LARP1B / RFU, RASA1 / Fold change vs veh, RASA1 / RFU, RB1 / Fold change vs veh, RB1 / RFU, PPFIA1 / Fold change vs veh, PPFIA1 / RFU, MAT2A / Fold change vs veh, MAT2A / RFU, CCT5 / Fold change vs veh, CCT5 / RFU, WDR92 / Fold change vs veh, WDR92 / RFU, CUX1 / Fold change vs veh, CUX1 / RFU, TTC7A / Fold change vs veh, TTC7A / RFU, TMEM135 / Fold change vs veh, TMEM135 / RFU, DEPTOR / Fold change vs veh, DEPTOR / RFU, CPM / Fold change vs veh, CPM / RFU, DNAJB6 / Fold change vs veh, DNAJB6 / RFU, CACNA2D3 / Fold change vs veh, CACNA2D3 / RFU, DTX4 / Fold change vs veh, DTX4 / RFU, TFCP2 / Fold change vs veh, TFCP2 / RFU, GMCL1 /// GMCL1P1 / Fold change vs veh, GMCL1 /// GMCL1P1 / RFU, AEBP2 / Fold change vs veh, AEBP2 / RFU, SNHG1 /// SNORD22 /// SNORD25 /// SNORD26 /// SNORD27 /// SNORD28 /// SNORD29 /// SNORD31 / Fold change vs veh, SNHG1 /// SNORD22 /// SNORD25 /// SNORD26 /// SNORD27 /// SNORD28 /// SNORD29 /// SNORD31 / Fold change (Aza/veh), C12orf56 (ProbeSet 11735607_a_at) / Fold change (ACY-1035/veh), C12orf56 (ProbeSet 11735607_a_at) / Fold change (Aza/veh), FGFR1OP (ProbeSet 11751329_s_at) / Fold change (ACY-1035/veh), FGFR1OP (ProbeSet 11751329_s_at) / Fold change (Aza/veh), VPS36 (ProbeSet 11739960_a_at) / Fold change (ACY-1035/veh), VPS36 (ProbeSet 11739960_a_at) / RFU SYPL1 (11715823_x_at) / Fold change /veh SYPL1 (11715823_x_at) / RFU IGFBP7 (11715501_s_at) / Fold change /veh IGFBP7 (11715501_s_at) / RFU REEP3 (11722064_at) / Fold change /veh REEP3 (11722064_at) / RFU IGLL1 (11728026_x_at) / Fold change /veh IGLL1 (11728026_x_at): dose or concentration left out as unconfirmed. Type of test: cell-based, human. The following applies: ProbeSet 11731610_x_at; LIST B.

Regarding `Nc1ccc(-c2cccs2)cc1NC(=O)c1ccc2c(c1)cc(C1CC1)n2CCN1CCOCC1` [ACY-1035], the “RFU, KIAA1704 /// LOC100996395” value was 79.91 RFU.
